Experimental data: US20250195427A1, “ANTI-INFLAMMATORY DRUG-ELUTING COMPOSITIONS AND METHODS” (THE REGENTS OF THE UNIVERSITY OF CALIFORNIA, priority 2022, published 2025)
Converted amounts (≈) assume the structure as drawn.

Legend:
[1] = Drug loading of mPEG-b-p(HPMAm-Lacn) micelles by HPLC (loaded concentration, encapsulation efficiency, loading capacity); type: physicochemical; details: for final concentration of drug loaded inside MCs: polymer 10 mg/mL, 1 mL MC solution, HPLC; for difference in encapsulation efficiency (EE) % with various polymer/drug ratios: polymer/drug ratios 10:0.25 to 10:2
Description: Drug loaded MCs were formed by self-assembly via a solvent evaporation method. Briefly, 10 mg of copolymers […] dissolved in 1 mL of acetone. Various amounts of drugs (0.25, 0.5, 1 and 2 mg) were then added to the copolymer solution and vortexed until fully mixed. […] The next day, the MC solution was centrifuged at 4,000 rpm at 22° C. for 10 min to remove unencapsulated drugs. LE, PA, and DEX were three drugs of interest. 30 mg/mL of drug stock solutions were prepared in DMSO. Unloaded MCs were prepared with the same procedure without the addition of drugs. The amount of loaded drugs (LE, PA and DEX) in the polymeric MCs was determined by using High Performance Liquid Chromatography (HPLC). Taking LE as an example, after centrifugation of the MC solution, the unencapsulated LE pellet was redissolved in 1 mL of ACN. […] LE dissolved in ACN (concentration from 0.1 mg/ml to 1 mg/ml) was used for calibration. The encapsulation efficiency (EE) and loading capacity (LC) were calculated as follows: […]

[2] = cited from earlier work

Row | final concentration of drug loaded inside MCs ([1]; initially applied drug 0.25 mg) | final concentration of drug loaded inside MCs ([1]; initially applied drug 2 mg) | difference in encapsulation efficiency (EE) % with various polymer/drug ratios [1] | SMILES | Log P [2] | solubility in water [2]
1 | 171.7 ± 4.2 µg/mL | 1154.0 ± 108.6 µg/mL | No significant difference | CC(=O)OCC(=O)[C@@]1(O)CC[C@H]2[C@@H]3CCC4=CC(=O)C=C[C@]4(C)[C@H]3[C@@H](O)C[C@@]21C [PA, Prednisolone acetate] | – | –
2 | 55.7 ± 10.0 µg/mL | 589.2 ± 75.5 µg/mL | No significant difference | CCOC(=O)O[C@]1(C(=O)OCCl)CC[C@H]2[C@@H]3CCC4=CC(=O)C=C[C@]4(C)[C@H]3[C@@H](O)C[C@@]21C [LE, Loteprednol etabonate] | 3.08 | 0.5 µg/mL (≈ 1.07 µM)
